The structures appear in SMILES notation.

Assay [1] concerns the target T1, Lysyl-tRNA synthetase (KARS) (Homo sapiens, UniProt Q15046). The assay can be described thus: biochemical. Also noted: gene KARS1.
The target of assay [2] is T1, Lysyl-tRNA synthetase (KARS). The assay can be described thus: co-crystal structure at […] Å; MST Kd; also ATP consumption/AMP production by purified KARS. It counts as binding. Also noted: gene KARS1; KARS70-580, C-terminal 6xHis.

T1 sequence (Q15046 70-580): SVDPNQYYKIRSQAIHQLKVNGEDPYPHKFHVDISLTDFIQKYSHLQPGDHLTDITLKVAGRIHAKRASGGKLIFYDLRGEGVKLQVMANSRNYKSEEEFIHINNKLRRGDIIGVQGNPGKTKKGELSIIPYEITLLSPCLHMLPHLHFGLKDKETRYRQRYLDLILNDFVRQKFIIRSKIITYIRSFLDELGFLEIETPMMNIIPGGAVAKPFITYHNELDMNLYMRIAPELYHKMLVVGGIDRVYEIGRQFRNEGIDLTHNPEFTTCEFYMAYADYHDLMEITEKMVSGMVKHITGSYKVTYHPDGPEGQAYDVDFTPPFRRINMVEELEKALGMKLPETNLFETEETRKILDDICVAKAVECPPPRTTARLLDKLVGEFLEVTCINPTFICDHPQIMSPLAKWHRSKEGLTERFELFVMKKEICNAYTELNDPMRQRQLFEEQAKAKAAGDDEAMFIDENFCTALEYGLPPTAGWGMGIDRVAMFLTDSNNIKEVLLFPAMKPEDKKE

For the compound `NCCCC[C@H](N)C(=O)O` [L-lysine], binding in assay [1] was characterised by a dissociation constant (Kd) of 118 ± 55.5 µM.
Turning to `CC(=O)NCCCC[C@H](N)C(=O)O` [AcK, N6-acetyl-L-lysine], the Kd (as a rule, the constant that tells how readily two partners part at equilibrium) in assay [2] stood at 407 ± 291 µM.

(Values after paper PMC11789599, “Co‐Translational Deposition of N ^6‐Acetyl‐L‐Lysine in Nascent Proteins Contributes to the Acetylome in Mammalian Cells” (Advanced Science, 2024).)
